From ChEMBL document CHEMBL3885861, “Open TG-GATES”

Species: Rattus norvegicus
Experiment: Open TG-GATES - Regimen: Daily Repeat
Assay type: toxicity, organism-based, Sprague-Dawley
Set-up: regimen Daily Repeat, gender Male, age 6 weeks
Conditions: in vivo, po, route gavage; for TP / gamma-GTP / ALP / ALT / AST / BUN / CRE / DBIL / GLC / IP / K / LDH / Na / PL / RALB / TBIL / TC / TG: tissue Plasma; for APTT / Bas / Eos / Fbg / Hb / Ht / Lym / MCH / MCHC / MCV / Mono / Neu / PT / Plat / RBC / Ret / WBC: tissue Blood; for KIDNEY_L / KIDNEY_R / KIDNEY_TOTAL: tissue Kidney; for LIVER: tissue Liver
[1] = 45 mg/kg, […], dose level Low, time 28 day
[2] = 150 mg/kg, 72 h, dose level Middle, time 3 day
[3] = 150 mg/kg, […], dose level Middle, time 7 day
[4] = 150 mg/kg, […], dose level Middle, time 14 day
[5] = 150 mg/kg, […], dose level Middle, time 28 day

CC(CCc1ccccc1)NCC(O)c1ccc(O)c(C(N)=O)c1 (centres undefined) [LABETALOL]
TP [1]: 6.4 g/dL
gamma-GTP [1]: 1 IU/L
TERMINAL_BW [2]: 253.6 g
APTT [2]: 16.1 s
Bas [2]: 0.2%
Eos [2]: 0.8%
Fbg [2]: 278 mg/dL
Hb [2]: 13.8 g/dL
Ht [2]: 40.7%
Lym [2]: 75%
MCH [2]: 21.7 pg
MCHC [2]: 33.9%
MCV [2]: 64 fL
Mono [2]: 2.6%
Neu [2]: 21.2%
PT [2]: 12.9 s
Plat [2]: 117.8 x10_4/uL
RBC [2]: 636.6 x10_4/ul
Ret [2]: 7.2%
WBC [2]: 104.5 x10_2/uL
KIDNEY_L [2]: 1 g
KIDNEY_R [2]: 1 g
KIDNEY_TOTAL [2]: 2 g
LIVER [2]: 11.7 g
ALP [2]: 2122.4 IU/L
ALT [2]: 47 IU/L
AST [2]: 76.8 IU/L
BUN [2]: 16.6 mg/dL
CRE [2]: 0.2 mg/dL
DBIL [2]: 0.018 mg/dL
GLC [2]: 180 mg/dL
IP [2]: 7.8 mg/dL
K [2]: 4 meq/L
LDH [2]: 65.6 IU/L
Na [2]: 145 meq/L
PL [2]: 155.4 mg/dL
RALB [2]: 2.7 g/dL
TBIL [2]: 0.028 mg/dL
TC [2]: 84.8 mg/dL
TG [2]: 120.6 mg/dL
TP [2]: 5.9 g/dL
gamma-GTP [2]: 1 IU/L
TERMINAL_BW [3]: 288.5 g
TERMINAL_BW [4]: 339.7 g
TERMINAL_BW [5]: 424.9 g
APTT [3]: 17.3 s
Bas [3]: 0%
Eos [3]: 1%
Fbg [3]: 310.4 mg/dL
Hb [3]: 14.8 g/dL
Ht [3]: 42.8%
Lym [3]: 73.4%
MCH [3]: 21.3 pg
MCHC [3]: 34.5%
MCV [3]: 61.9 fL
Mono [3]: 2.6%
Neu [3]: 22.2%
PT [3]: 12.9 s
Plat [3]: 110.9 x10_4/uL
RBC [3]: 693.2 x10_4/ul
Ret [3]: 5.2%
WBC [3]: 92.4 x10_2/uL
APTT [4]: 17.1 s
Bas [4]: 0.2%
Eos [4]: 1.2%
Fbg [4]: 300.4 mg/dL
Hb [4]: 14.9 g/dL
Ht [4]: 42.9%
Lym [4]: 71.2%
MCH [4]: 20.6 pg
MCHC [4]: 34.6%
MCV [4]: 59.5 fL
Mono [4]: 2.2%
Neu [4]: 24.8%
PT [4]: 13.1 s
RBC [4]: 721.4 x10_4/ul
Ret [4]: 4.3%
WBC [4]: 99.2 x10_2/uL
APTT [5]: 19 s
Bas [5]: 0.4%
Eos [5]: 1.4%
Fbg [5]: 286.4 mg/dL
Hb [5]: 15.6 g/dL
Ht [5]: 44.3%
Lym [5]: 71.8%
MCH [5]: 19.8 pg
MCHC [5]: 35.2%
MCV [5]: 56.1 fL
Mono [5]: 3%
Neu [5]: 23.2%
PT [5]: 13.5 s
Plat [5]: 96.8 x10_4/uL
RBC [5]: 789.8 x10_4/ul
Ret [5]: 2.1%
WBC [5]: 110.3 x10_2/uL
KIDNEY_L [3]: 1.2 g
KIDNEY_R [3]: 1.2 g
KIDNEY_TOTAL [3]: 2.4 g
KIDNEY_L [4]: 1.2 g
KIDNEY_R [4]: 1.2 g
KIDNEY_TOTAL [4]: 2.4 g
KIDNEY_L [5]: 1.4 g
KIDNEY_R [5]: 1.4 g
KIDNEY_TOTAL [5]: 2.8 g
LIVER [3]: 12.6 g
LIVER [4]: 13.3 g
LIVER [5]: 15.6 g
ALP [3]: 1724.6 IU/L
ALT [3]: 51 IU/L
AST [3]: 76 IU/L
BUN [3]: 14.8 mg/dL
CRE [3]: 0.2 mg/dL
DBIL [3]: 0.02 mg/dL
GLC [3]: 183.2 mg/dL
K [3]: 3.8 meq/L
LDH [3]: 68.4 IU/L
Na [3]: 142.8 meq/L
PL [3]: 150.8 mg/dL
RALB [3]: 2.8 g/dL
TBIL [3]: 0.034 mg/dL
TC [3]: 78 mg/dL
TG [3]: 141.2 mg/dL
TP [3]: 6.1 g/dL
gamma-GTP [3]: 1 IU/L
ALP [4]: 1359.8 IU/L
ALT [4]: 50.6 IU/L
AST [4]: 74.4 IU/L
BUN [4]: 17.2 mg/dL
CRE [4]: 0.2 mg/dL
DBIL [4]: 0.012 mg/dL
GLC [4]: 174.6 mg/dL
IP [4]: 8.6 mg/dL
K [4]: 3.9 meq/L
LDH [4]: 58.6 IU/L
Na [4]: 145.4 meq/L
PL [4]: 148.6 mg/dL
RALB [4]: 2.8 g/dL
TBIL [4]: 0.026 mg/dL
TC [4]: 81.6 mg/dL
TG [4]: 88.8 mg/dL
TP [4]: 6.3 g/dL
gamma-GTP [4]: 1.4 IU/L
ALP [5]: 865.6 IU/L
ALT [5]: 60.2 IU/L
AST [5]: 78.2 IU/L
BUN [5]: 18.4 mg/dL
CRE [5]: 0.3 mg/dL
DBIL [5]: 0.026 mg/dL
GLC [5]: 185.6 mg/dL
IP [5]: 7.3 mg/dL
K [5]: 3.6 meq/L
LDH [5]: 69.4 IU/L
Na [5]: 143.4 meq/L
PL [5]: 132 mg/dL
RALB [5]: 2.8 g/dL
TBIL [5]: 0.038 mg/dL
TC [5]: 74 mg/dL
TG [5]: 113 mg/dL
TP [5]: 6.2 g/dL
